Assay results from publication PMC10527105, “Chirality Matters: Fine-Tuning of Novel Monoamine Reuptake Inhibitors Selectivity through Manipulation of Stereochemistry” (Biomolecules, 2023).
Where two headings read alike, the source gives them in different places.

Tests used:
[1] = tested on: rat cortical neurons; experiment: Neurite outgrowth assay (Cyprotex); assay type: cell-based; conditions: for IC50: 72 h
Protocol: Neurite outgrowth assay. […] were carried out by Cyprotex (an Evotec Company, Toulouse, France), Study No. CYP2052-R1. For an in-depth description, please refer to the report in the supporting information files. Cryo-preserved rat cortical neurons (QBM Cell Science, R-Cx-500) were quickly thawed and slowly diluted with neurobasal medium supplemented with L-glutamine (Invitrogen, Cat. No. 25030-081), penicillin-streptomycin (Invitrogen, Cat. No. 15140-122), and B27 (NB/B27 medium, Invitrogen, Cat. No. 17504-044). After a gentle centrifugation step, the neurons were resuspended in NB/B27 medium at a density of 4.0 × 10^6 cells/mL. One hour prior to treatment, the neurons were plated in 384-well plates (Corning 354663) pre-coated with a laminin solution (Sigma L2020 1 mg/mL) at a density of 10,000 cells per well. After treatment with test articles and control compounds, the neurons were maintained in a humidified environment at 37 °C with 5% CO2 for 72 h. At the end of the treatment period, the neurons were fixed for 1 h with a 3.7% formaldehyde solution (Acros Organics, 41073-0010). The neurons were washed with phosphate buffered saline (PBS) (SH30264.02) and permeabilized for 10 min with a 0.5% solution of Triton X-100 (Millipore Sigma, X100). After another wash step, the neurons were stained for one hour with Hoechst 33342 (ThermoFisher Scientific, H3570) and the anti-beta III tubulin antibody, Alexa Fluor® 488 conjugate (Millipore Sigma AB15708A4), diluted in a blocking buffer solution (Thermo Scientific, 37525). Upon completion of the staining step, the neurons were washed again, and the plates were sealed in preparation for the imaging process. The neurons were evaluated for neurite outgrowth and cell health using the high-content imaging platform, ArrayScan VTi (Thermo Scientific ArrayScan VTi), with an optimized neuronal profiling bio-application.
This assay assessed cell health and neurite outgrowth utilizing a neuronal profiling bio-application applied to images obtained on an ArrayScan VTi. Valid neuron count, mean neurite average length, and neurite total length per neuron were determined and reported. Raw data were normalized to the vehicle control and reported as a normalized% response. Dose response graphs were generated with GraphPad Prism using a sigmoidal dose-response (variable slope) algorithm.

[2] = target: T1, noradrenaline transporter/SLC6A2 (NET) (Homo sapiens, UniProt P23975); conditions: cells stably expressing NET; ref [35]; read-out: Reuptake Inhibition (IC50 ± SE, µM) NET; cited from earlier work
T1 construct: expressed in transfected cells; host or cells: HEK293
T1 sequence (P23975 whole entry): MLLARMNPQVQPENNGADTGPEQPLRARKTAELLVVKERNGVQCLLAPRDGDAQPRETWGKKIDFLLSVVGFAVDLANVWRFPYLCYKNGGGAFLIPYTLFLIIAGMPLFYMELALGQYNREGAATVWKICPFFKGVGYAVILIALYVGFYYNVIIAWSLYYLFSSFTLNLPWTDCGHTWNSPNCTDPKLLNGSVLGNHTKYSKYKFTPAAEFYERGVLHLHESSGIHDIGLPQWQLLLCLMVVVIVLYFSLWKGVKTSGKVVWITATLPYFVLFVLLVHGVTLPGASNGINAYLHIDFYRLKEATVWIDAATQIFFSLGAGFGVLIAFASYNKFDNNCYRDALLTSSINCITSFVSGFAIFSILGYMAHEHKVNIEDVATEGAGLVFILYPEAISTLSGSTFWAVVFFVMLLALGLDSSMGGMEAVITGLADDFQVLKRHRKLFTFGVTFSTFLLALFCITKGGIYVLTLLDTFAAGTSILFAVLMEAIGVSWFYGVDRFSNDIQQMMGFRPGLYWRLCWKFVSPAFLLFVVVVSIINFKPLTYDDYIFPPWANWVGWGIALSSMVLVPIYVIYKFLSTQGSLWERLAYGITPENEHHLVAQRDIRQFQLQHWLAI

| SMILES | IC50 ([1]; Cortical neurone, rat cortical neurons, read-out: Mean Neurite Avg. Length IC50) | IC50 ([1]; Cortical neurone, rat cortical neurons, read-out: Neurite Total Length per Neuron IC50) | IC50 ([1]; Cortical neurone, rat cortical neurons, read-out: Valid Neuron Count IC50) | effect on neurite outgrowth in relation to effect on cell viability ([1]; rat cortical neurons) | IC50 [2] | IC50 ([1]; Rattus norvegicus, Cortical neurone, read-out: Mean Neurite Avg. Length IC50, rat cortical neurons, 72 h) | IC50 ([1]; Rattus norvegicus, Cortical neurone, read-out: Neurite Total Length per Neuron IC50, rat cortical neurons, 72 h) | IC50 ([1]; Rattus norvegicus, Cortical neurone, read-out: Valid Neuron Count IC50, rat cortical neurons, 72 h) | IC50 ([1]; read-out: Mean Neurite Avg. Length IC50, rat cortical neurons) |
| --- | --- | --- | --- | --- | --- | --- | --- | --- | --- |
| COC(=O)Nc1nc2ccc(C(=O)c3cccs3)cc2[nH]1 [Nocodazole, reference compound] | 0.097 µM | 0.0997 µM | 2.22 µM | positive for substantially affecting neurite outgrowth while nominally affecting cell viability | – | – | – | – | – |
| NC(=O)C[S@@+]([O-])C(c1ccccc1)c1ccccc1 [R-Modafinil] | – | – | – | – | 169 ± 90 µM | – | – | – | – |
| CN(C)CCCN1c2ccccc2Sc2ccc(Cl)cc21 [Chlorpromazine, reference compound] | – | – | – | not independent of its effect on cell viability | – | 9.02 µM | 13.8 µM | 7.99 µM | 9.02 µM |
